Reference: US9670227B2, “Thienopyrimidine derivatives, a process for their preparation and pharmaceutical compositions containing them” (LES LABORATOIRES SERVIER, priority 2013, dated 2017)

Target: Mcl-1 protein (UniProtKB primary accession number: Q07820) (Homo sapiens, UniProt Q07820)
Experiment: Inhibition of Mcl-1 by fluorescence polarisation, Method 1
Assay type: binding
Conditions: fluorescence polarisation test; Method 1, or Method 2 where the value is underlined (underlining not visible); read-out: IC50 (M) Mcl-1 FP
Procedure, shortened: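 Binding was measured as fluorescence polarisation of a fluorescein-labelled ligand (1 nM) displaced from Mcl-1 (5 nM), both final. Compounds ran as 11-point series with final DMSO at 5%.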

Chain of Mcl-1 protein (Q07820 whole entry): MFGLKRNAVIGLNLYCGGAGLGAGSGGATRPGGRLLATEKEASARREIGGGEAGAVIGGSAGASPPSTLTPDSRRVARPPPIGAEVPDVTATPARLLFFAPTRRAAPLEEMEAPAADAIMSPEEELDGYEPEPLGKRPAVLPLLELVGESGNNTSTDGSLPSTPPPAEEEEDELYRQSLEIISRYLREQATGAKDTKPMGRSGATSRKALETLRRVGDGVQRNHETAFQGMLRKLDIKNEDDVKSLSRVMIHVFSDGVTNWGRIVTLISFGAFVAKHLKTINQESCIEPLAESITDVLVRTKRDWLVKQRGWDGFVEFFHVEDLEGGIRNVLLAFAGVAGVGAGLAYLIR

In order of rising IC50:
1. Cc1c(-c2c(-c3ccc(F)cc3)sc3ncnc(OC(Cc4ccccc4OCc4ccnc(-c5ccccc5F)n4)C(=O)OCC(=O)N(C)C)c23)ccc(OCCN2CCN(C)CC2)c1Cl [Example 816, 2-(dimethylamino)-2-oxoethyl (2R)-2-{[(5Sa)-5-{3-chloro-2-methyl-4-[2-(4-methylpiperazin-1-yl)ethoxy]phenyl}-6-(4-fluorophenyl)thieno[2,3-d]pyrimidin-4-yl]oxy}-3-(2-{[2-(2-fluorophenyl)pyrimidin-4-yl]methoxy}phenyl)propanoate]  1.72e-07 M
2. Cc1c(-c2c(-c3ccc(F)cc3)sc3ncnc(OC(Cc4ccccc4OCc4ccnn4C(C)(C)C)C(=O)OCC(=O)N(C)C)c23)ccc(OCCN(C)C)c1Cl [Example 817, 2-(dimethylamino)-2-oxoethyl (2R)-3-{2-[(1-tert-butyl-1H-pyrazol-5-yl)methoxy]phenyl}-2-{[(5Sa)-5-{3-chloro-4-[2-(dimethylamino)ethoxy]-2-methylphenyl}-6-(4-fluorophenyl)thieno[2,3-d]pyrimidin-4-yl]oxy}propanoate]  4.75e-07 M
3. COCCOC(=O)C(Cc1ccccc1OCc1ccnc(-c2ccccc2OCCOC)n1)Oc1ncnc2sc(-c3ccc(F)cc3)c(-c3ccc(OCCN(C)C)c(Cl)c3C)c12 [Example 800, 2-methoxyethyl (2R)-2-{[(5Sa)-5-{3-chloro-4-[2-(dimethylamino)ethoxy]-2-methylphenyl}-6-(4-fluorophenyl)thieno[2,3-d]pyrimidin-4-yl]oxy}-3-[2-({2-[2-(2-methoxyethoxy)phenyl]pyrimidin-4-yl}methoxy)phenyl]propanoate]  1.39e-06 M
4. CCOC(=O)C(Cc1ccccc1OCc1ccnc(-c2ccccc2OCCOC)n1)Oc1ncnc2sc(-c3ccc(F)cc3)c(-c3ccc(OCCN(C)C)c(Cl)c3C)c12 [Example 806, ethyl (2R)-2-{[(5Sa)-5-{3-chloro-4-[2-(dimethylamino)ethoxy]-2-methylphenyl}-6-(4-fluorophenyl)thieno[2,3-d]pyrimidin-4-yl]oxy}-3-[2-({2-[2-(2-methoxyethoxy)phenyl]pyrimidin-4-yl}methoxy)phenyl]propanoate]  1.63e-06 M
5. CCOC(=O)C(Cc1ccccc1OCc1ccnc(-c2ccccc2F)n1)Oc1ncnc2sc(-c3ccc(F)cc3)c(-c3ccc(OCCN4CCN(C)CC4)c(Cl)c3C)c12 [Example 797, ethyl (2R)-2-{[(5Sa)-5-{3-chloro-2-methyl-4-[2-(4-methylpiperazin-1-yl)ethoxy]phenyl}-6-(4-fluorophenyl)thieno[2,3-d]pyrimidin-4-yl]oxy}-3-(2-{[2-(2-fluorophenyl)pyrimidin-4-yl]methoxy}phenyl)propanoate]  2.75e-06 M
6. COCCOC(=O)C(Cc1ccccc1OCc1ccnn1C(C)(C)C)Oc1ncnc2sc(-c3ccc(F)cc3)c(-c3ccc(OCCN(C)C)c(Cl)c3C)c12 [Example 802, 2-methoxyethyl (2R)-3-{2-[(1-tert-butyl-1H-pyrazol-5-yl)methoxy]phenyl}-2-{[(5Sa)-5-{3-chloro-4-[2-(dimethylamino)ethoxy]-2-methylphenyl}-6-(4-fluorophenyl)thieno[2,3-d]pyrimidin-4-yl]oxy}propanoate]  2.88e-06 M
7. CCN(C)CCOc1ccc(-c2c(-c3ccc(F)cc3)sc3ncnc(OC(Cc4ccccc4OCc4ccnc(-c5ccccc5F)n4)C(=O)OCCOC)c23)c(C)c1Cl [Example 803, 2-methoxyethyl (2R)-2-{[(5Sa)-5-(3-chloro-4-{2-[ethyl(methyl)amino]ethoxy}-2-methylphenyl)-6-(4-fluorophenyl)thieno[2,3-d]pyrimidin-4-yl]oxy}-3-(2-{[2-(2-fluorophenyl)pyrimidin-4-yl]methoxy}phenyl)propanoate]  3.14e-06 M
8. CCOC(=O)C(Cc1ccccc1OCc1ccnc(-c2ccccc2F)n1)Oc1ncnc2sc(-c3ccc(F)cc3)c(-c3ccc(OCCN(C)CC)c(Cl)c3C)c12 [Example 801, ethyl (2R)-2-{[(5Sa)-5-(3-chloro-4-{2-[ethyl(methyl)amino]ethoxy}-2-methylphenyl)-6-(4-fluorophenyl)thieno[2,3-d]pyrimidin-4-yl]oxy}-3-(2-{[2-(2-fluorophenyl)pyrimidin-4-yl]methoxy}phenyl)propanoate]  4.37e-06 M
9. CCOC(=O)C(Cc1ccccc1OCc1ccnc(-c2ccccc2O)n1)Oc1ncnc2sc(-c3ccc(F)cc3)c(-c3ccc(OCCN4CCNCC4)c(Cl)c3C)c12 [Example 798, ethyl (2R)-2-{[(5Sa)-5-{3-chloro-2-methyl-4-[2-(piperazin-1-yl)ethoxy]phenyl}-6-(4-fluorophenyl)thieno[2,3-d]pyrimidin-4-yl]oxy}-3-(2-{[2-(2-hydroxyphenyl)pyrimidin-4-yl]methoxy}phenyl)propanoate]  5.15e-06 M
10. CCOC(=O)C(Cc1ccccc1OCc1ccnn1C(C)(C)C)Oc1ncnc2sc(-c3cccc(F)c3F)c(-c3ccc(OCCN(C)C)c(Cl)c3C)c12 [Example 804, ethyl (2R)-3-{2-[(1-tert-butyl-1H-pyrazol-5-yl)methoxy]phenyl}-2-{[(5Sa)-5-{3-chloro-4-[2-(dimethylamino)ethoxy]-2-methylphenyl}-6-(2,3-difluorophenyl)thieno[2,3-d]pyrimidin-4-yl]oxy}propanoate]  4.68e-05 M

Same assay, conditions: test compound at 10 uM; Method 1, or Method 2 where the value is underlined (underlining not visible)

In order of falling “percentage fluorescence polarisation inhibition (Mcl-1 FP), partial inhibitors” value:
1. COCCOC(=O)[C@@H](Cc1ccccc1OCc1ccnc(-c2ccccc2F)n1)Oc1ncnc2sc(-c3ccc(F)cc3)c(-c3ccc(OCCN(C)C)c(Cl)c3C)c12 [Example 799, 2-methoxyethyl (2R)-2-{[(5Sa)-5-{3-chloro-4-[2-(dimethylamino)ethoxy]-2-methylphenyl}-6-(4-fluorophenyl)thieno[2,3-d]pyrimidin-4-yl]oxy}-3-(2-{[2-(2-fluorophenyl)pyrimidin-4-yl]methoxy}phenyl)propanoate]  59.6% @ 10 uM
2. COCCOC(=O)[C@@H](Cc1ccccc1OCc1ccnn1C(C)(C)C)Oc1ncnc2sc(-c3cccc(F)c3F)c(-c3ccc(OCCN(C)C)c(Cl)c3C)c12 [Example 805, 2-methoxyethyl (2R)-3-{2-[(1-tert-butyl-1H-pyrazol-5-yl)methoxy]phenyl}-2-{[(5Sa)-5-{3-chloro-4-[2-(dimethylamino)ethoxy]-2-methylphenyl}-6-(2,3-difluorophenyl)thieno[2,3-d]pyrimidin-4-yl]oxy}propanoate]  53.5% @ 10 uM
3. CCOC(=O)[C@@H](Cc1ccccc1OCc1ccnc(-c2ccccc2F)n1)Oc1ncnc2sc(-c3ccc(F)cc3)c(-c3ccc(OCCN(C)C)c(Cl)c3C)c12 [Example 807, ethyl (2R)-2-{[(5Sa)-5-{3-chloro-4-[2-(dimethylamino)ethoxy]-2-methylphenyl}-6-(4-fluorophenyl)thieno[2,3-d]pyrimidin-4-yl]oxy}-3-(2-{[2-(2-fluorophenyl)pyrimidin-4-yl]methoxy}phenyl)propanoate]  52.45% @ 10 uM
4. CCCCCCCCOC(=O)[C@@H](Cc1ccccc1OCc1ccnc(-c2ccccc2OC)n1)Oc1ncnc2sc(-c3ccc(F)cc3)c(-c3ccc(OCCN4CCN(C)CC4)c(Cl)c3C)c12 [Example 815, octyl (2R)-2-{[(5Sa)-5-{3-chloro-2-methyl-4-[2-(4-methylpiperazin-1-yl)ethoxy]phenyl}-6-(4-fluorophenyl)thieno[2,3-d]pyrimidin-4-yl]oxy}-3-(2-{[2-(2-methoxyphenyl)pyrimidin-4-yl]methoxy}phenyl)propanoate]  19.95% @ 10 uM
